PubChem BioAssay (NCI)
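Five concentrations, 48 hours, 96-well plates. The concentration for full growth arrest is given as TGI.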

Legend:
Experiment in all cases: NCI tumour cell line growth inhibition, 48 h
A549 NSCLC = tested on: A549 NSCLC
PC-3 prostate = tested on: PC-3 prostate
KM12 colon = tested on: KM12 colon
DU-145 prostate = tested on: DU-145 prostate
OVCAR-4 ovarian = tested on: OVCAR-4 ovarian
SK-OV-3 ovarian = tested on: SK-OV-3 ovarian
NCI-H23 lung = tested on: NCI-H23 lung
HS 578T breast = tested on: HS 578T breast
OVCAR-8 ovarian = tested on: OVCAR-8 ovarian
OVCAR-3 ovarian = tested on: OVCAR-3 ovarian

Measured: TGI

C#CCNC(CSSCC(N)C(=O)O)C(=O)O (stereo not given)
> 100 µM: all assays above
